In patent US9447028B2, “Therapeutic aryl-amido-aryl compounds and their use” (King's College London, priority 2009, dated 2016):

Experiments:
Assay type in all cases: cell-based
[1] = target: T1, RARα (Homo sapiens, UniProt P10276); assay: Transactivation assay for RAR alpha (gal4-RAR fusion, luciferase reporter, COS-7 cells); details: for RARα/RARβ ratio (*): fold-selectivity for RARα over RARβ; for RARα activity ratio: ratio of test compound EC50 to that of atRA on the same plate
T1 construct: gal4 (fusion partner); expressed in transfected cells; host or cells: COS-7
T1 sequence (P10276 183-417 limits assumed): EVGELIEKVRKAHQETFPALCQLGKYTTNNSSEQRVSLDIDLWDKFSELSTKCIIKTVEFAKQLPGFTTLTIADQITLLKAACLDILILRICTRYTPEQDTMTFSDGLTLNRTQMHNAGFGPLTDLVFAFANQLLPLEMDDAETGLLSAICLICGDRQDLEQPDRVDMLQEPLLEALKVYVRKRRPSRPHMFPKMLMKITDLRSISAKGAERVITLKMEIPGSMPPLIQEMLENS
Description: (§1) Transcriptional transactivation assays were performed with gal4 fusion receptor constructs, created using each of the RAR ligand binding domains, co-transfected with the pFR-luc (Stratagene™) reporter construct in COS-7 cells.
(§2) Briefly, on day 1, 96 well plates were seeded with 8000 cells per well then left to recover overnight. On day 2, the cells were co-transfected with 100 ng of reporter plasmid and 10 ng of the appropriate receptor plasmid per well using lipofectamine (Invitrogen™). On day 3, the lipofectamine containing media was replaced by a DMEM without phenol red, followed by the addition of test compound dissolved in 1 μL of DMSO to each well's 100 μL total volume. Finally, on day 4, the cells were lysed and their luciferase substrate was provided by the BrightGlo™ reagent (Promega™), the plates were then read on the MicroBeta TriLux™ (Perkin Elmer™).
(§3) Where replicate data has been generated, the data are quoted as a ratio of the mean EC50 from the separate experiments.

[2] = target: T2, RARβ (Homo sapiens, UniProt P10826); assay: Transactivation assay for RAR beta (gal4-RAR fusion, luciferase reporter, COS-7 cells); details: ratio of test compound EC50 to that of atRA; inactive = no agonist action at the highest concentration tested
T2 construct: gal4 (fusion partner); expressed in transfected cells; host or cells: COS-7
T2 sequence (P10826 183-417 limits assumed): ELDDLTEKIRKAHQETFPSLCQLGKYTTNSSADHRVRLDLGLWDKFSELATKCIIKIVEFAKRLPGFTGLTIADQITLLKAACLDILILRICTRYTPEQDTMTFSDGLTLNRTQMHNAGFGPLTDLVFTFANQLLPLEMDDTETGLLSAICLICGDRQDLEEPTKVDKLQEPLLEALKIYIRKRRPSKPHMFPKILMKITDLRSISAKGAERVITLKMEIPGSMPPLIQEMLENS
Description: as §1, §2, §3

[3] = target: T3, RARγ (Homo sapiens, UniProt P13631); assay: Transactivation assay for RAR gamma (gal4-RAR fusion, luciferase reporter, COS-7 cells); details: ratio of test compound EC50 to that of atRA; inactive = no agonist action at the highest concentration tested
T3 construct: gal4 (fusion partner); expressed in transfected cells; host or cells: COS-7
T3 sequence (P13631 185-419 limits assumed): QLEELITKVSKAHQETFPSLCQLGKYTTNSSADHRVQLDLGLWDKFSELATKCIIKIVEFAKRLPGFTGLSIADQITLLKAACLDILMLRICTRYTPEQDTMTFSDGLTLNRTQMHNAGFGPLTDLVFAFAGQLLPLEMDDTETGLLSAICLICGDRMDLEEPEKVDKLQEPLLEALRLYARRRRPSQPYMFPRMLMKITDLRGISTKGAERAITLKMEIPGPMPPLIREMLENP
Description: as §1, §2, §3

Row | Structure (SMILES) | RARα/RARβ ratio (*) [1] | RARα activity ratio [1] | RARβ activity ratio [2] | RARγ activity ratio [3] | increase in RARα activity ([1]; compared with XXX-02) [fold]
1 | COc1c(Cl)cc(C(=O)Nc2ccc(C(=O)O)c(C)c2)cc1OC(C)C [AAA-075, 4-(3-Chloro-5-isopropoxy-4-methoxybenzamido)-2-methylbenzoic acid] | 241 | 4.7 | 1134 | 2394 | –
2 | CCOc1c(Cl)cc(C(=O)Nc2ccc(C(=O)O)c(F)c2)cc1Cl [AAA-007, 4-(3,5-Dichloro-4-ethoxybenzamido)-2-fluorobenzoic acid] | – | – | 2010 | inactive | –
3 | CCOc1cc(C(=O)Nc2ccc(C(=O)O)cc2)cc(OCC)c1OCC [AAA-028, 4-(3,4,5-triethoxy-benzoylamino)-benzoic acid] | 173.0 | 370 | 64000 | inactive | –
4 | CC(C)Oc1cc(C(=O)Nc2ccc(C(=O)O)c(F)c2)cc(OC(C)C)c1Br [AAA-108, 4-(4-Bromo-3,5-diisopropoxybenzamido)-2-fluorobenzoic acid] | 338 | 5.1 | 1727 | 32500 | –
5 | CCOc1c(Br)cc(C(=O)Nc2ccc(C(=O)O)cc2)cc1C(F)(F)F [AAA-042, 4-(3-Bromo-4-ethoxy-5-(trifluoromethyl)benzamido)benzoic acid] | 68 | 5.4 | 369 | 6000 | –
6 | Cc1cc(NC(=O)c2cc(Cl)c(OC3CCCC3)c(OC3CCCC3)c2)ccc1C(=O)O [AAA-046, 4-(3-Chloro-4,5-bis(cyclopentyloxy)benzamido)-2-methylbenzoic acid] | 43 | 2.8 | 121 | 698 | –
7 | CCOc1c(Cl)cc(C(=O)Nc2cc(F)c(C(=O)O)c(F)c2)cc1C(F)(F)F [AAA-022, 4-(3-Chloro-4-ethoxy-5-(trifluoromethyl)benzamido)-2,6-difluorobenzoic acid] | >50 | 448 | inactive | inactive | 5
8 | CCOc1ccc(C(=O)Nc2cc(F)c(C(=O)O)c(F)c2)cc1C(F)(F)F [XXX-02, 4-(4-Ethoxy-3-(trifluoromethyl)benzamido)-2,6-difluorobenzoic acid, reference compound] | – | 2242 | – | – | –
9 | O=C(O)c1ccc(NC(=O)c2cc(Cl)cc(Cl)c2)cc1 [XXX-03, 4-(3,5-Dichlorobenzamido)benzoic acid, reference compound] | 7.1 | 90 | 642 | inactive | –
10 | CCOc1c(Cl)cc(C(=O)Nc2ccc(C(=O)O)c(C(F)(F)F)c2)cc1Cl [AAA-033, 4-(3,5-Dichloro-4-ethoxybenzamido)-2-(trifluoromethyl)benzoic acid] | 1.5 | 13 | 19 | 148 | –
11 | CCOc1c(OC(C)C)cc(C(=O)Nc2ccc(C(=O)O)c(F)c2)cc1OC(C)C [AAA-064, 4-(3,5-Diisopropoxy-4-ethoxybenzamido)-2-fluorobenzoic acid] | >40 | 81 | >3500 | 1977 | –
12 | Cc1cc(NC(=O)c2cc(OC(C)C)c(Br)c(OC(C)C)c2)ccc1C(=O)O [AAA-111, 4-(4-Bromo-3,5-diisopropoxybenzamido)-2-methylbenzoic acid] | 71 | 10 | 712 | 50000 | –
13 | CCOc1c(Cl)cc(C(=O)Nc2ccc(C(=O)O)cc2)cc1OC [AAA-024, 4-(3-Chloro-4-ethoxy-5-methoxybenzamido)benzoic acid] | 12.2 | 66 | 805 | 27200 | –
14 | COc1c(Cl)cc(C(=O)Nc2ccc(C(=O)O)cc2)cc1OC1CCC1 [AAA-098, 4-(3-Chloro-5-cyclobutoxy-4-methoxybenzamido)benzoic acid] | 36 | 12 | 433 | 2955 | –
15 | COc1c(Cl)cc(C(=O)Nc2ccc(C(=O)O)c(F)c2)cc1OC1CCC1 [AAA-100, 4-(3-Chloro-5-cyclobutoxy-4-methoxybenzamido)-2-fluorobenzoic acid] | 99 | 33 | 3273 | 11818 | –
16 | CCC(CC)Oc1cc(C(=O)Nc2ccc(C(=O)O)c(C)c2)cc(Cl)c1OC [AAA-102, 4-(3-Chloro-4-methoxy-5-(pentan-3-yloxy)benzamido)-2-methylbenzoic acid] | 33 | 2.2 | 73 | 833 | –
17 | CCOc1c(Cl)cc(C(=O)Nc2ccc(C(=O)O)c(O)c2)cc1OCC1CC1 [AAA-090, 4-(3-Chloro-5-(cyclopropylmethoxy)-4-ethoxybenzamido)-2-hydroxybenzoic acid] | 250 | 5.0 | 1250 | 367000 | –
18 | CCOc1c(Cl)cc(C(=O)Nc2ccc(C(=O)O)c(F)c2)cc1OC(C)C [AAA-079, 4-(3-Chloro-4-ethoxy-5-isopropoxybenzamido)-2-fluorobenzoic acid] | 487 | 1.1 | 536 | 6786 | –
19 | COc1c(Cl)cc(C(=O)Nc2ccc(C(=O)O)c(F)c2)cc1C(F)(F)F [AAA-066, 4-(3-Chloro-4-methoxy-5-(trifluoromethyl)benzamido)-2-fluorobenzoic acid] | 236 | 32 | 7558 | – | –
20 | CCOc1cc(C(=O)Nc2ccc(C(=O)O)cc2)cc(OCC)c1Br [AAA-106, 4-(4-Bromo-3,5-diethoxybenzamido)benzoic acid] | 34 | 66 | 2245 | 2326 | –
21 | COc1cc(C(=O)Nc2ccc(C(=O)O)cc2)cc(Cl)c1OC1CCCC1 [AAA-006, 4-(3-Chloro-4-(cyclopentyloxy)-5-methoxybenzamido)benzoic acid] | – | – | 1054 | 5840 | –
22 | CCOc1c(C(F)(F)F)cc(NC(=O)c2ccc(C(=O)O)cc2)cc1C(F)(F)F [AAA-015, 4-(4-Ethoxy-3,5-bis(trifluoromethyl)phenylcarbamoyl)benzoic acid] | – | – | 540 | inactive | –
23 | CCOc1c(Br)cc(C(=O)Nc2ccc(C(=O)O)cc2)cc1Br [AAA-023, 4-(3,5-Dibromo-4-ethoxybenzamido)benzoic acid] | – | – | 404 | 62370 | –
24 | CCOc1cc(C(=O)Nc2ccc(C(=O)O)cc2)cc(OC(C)C)c1OCC [AAA-009, 4-(3,4-Diethoxy-5-isopropoxybenzamido)benzoic acid] | – | – | 2450 | 960 | –
25 | CCOc1c(Cl)cc(C(=O)Nc2ccc(C(=O)OC)c(Cl)c2)cc1Cl [AAA-017, Methyl 4-(3,5-dichloro-4-ethoxybenzamido)-2-chlorobenzoate] | >500 | 140 | inactive | – | –
26 | CCOc1c(Cl)cc(C(=O)Nc2ccc(C(=O)O)cn2)cc1Cl [AAA-027, 6-(3,5-Dichloro-4-ethoxybenzamido)nicotinic acid] | >5 | 260 | inactive | – | –
27 | CCOc1c(F)cc(NC(=O)c2ccc(C(=O)O)cc2)cc1F [AAA-021, 4-(4-Ethoxy-3,5-difluorophenylcarbamoyl)benzoic acid] | – | 760 | – | – | –
28 | CCOc1c(Cl)cc(C(=O)Nc2ccc(C(N)=O)cc2)cc1Cl [AAA-016, N-(4-Carbamoylphenyl)-3,5-dichloro-4-ethoxybenzamide] | – | 500 | – | – | –
